In series [1] the test system is Microglia. Nature of the series: Anti-necroptosis activity in LPS/zVAD stimulated mouse primary microglia overexpressed with RIPK1 assessed as reversal of translucent cytoplasm by TEM analysis. It is filed as functional, cell-based.
Series [2] concerns the target Voltage-gated inwardly rectifying potassium channel KCNH2 (Homo sapiens, UniProt Q12809). Nature of the series: Inhibition of human ERG expressed in CHO cells by Qpatch clamp method. It is filed as toxicity, cell-based.
Series [3] in a line: Unbound plasma protein binding in human incubated for 24 hrs by HPLC based equilibrium dialysis method. It is filed as ADME, cell-free. On the technique in general: In equilibrium dialysis free small molecules cross a membrane that holds back macromolecules.
A further series relates to Mus musculus. Nature of the series: Anti-alzheimer activity against 8 month old 3xTg mouse model assessed as reduction in p-Tau181 content at 2 to 10 mg/kg, po. It is filed as functional, organism-based. The conditions noted are these: dose 2-10 mg/kg.
The subject of series [4] is Microglia. Nature of the series: Anti-necroptosis activity in LPS/zVAD stimulated mouse primary microglia transfected with flag-tagged RIPK1 plasmid assessed as protection of microglia cells at 100 nM. Format: functional, cell-based.
Another series addresses Cytochrome P450 3A4 (Homo sapiens, UniProt P08684). The series can be described thus: Inhibition of CYP3A4 (unknown origin) using midazolam as substrate incubated for 10 mins in presence of NADPH by LC-MS/MS analysis. It is filed as ADME.
The next series has as its target Cytochrome P450 3A5 (Homo sapiens, UniProt P20815). The series can be described thus: Inhibition of CYP3A5 (unknown origin) using midazolam as substrate incubated for 10 mins in presence of NADPH by LC-MS/MS analysis. It is filed as ADME.

Active and inactive are the calls of the source. No cut-off for these calls is given here.

We go through one compound from ChEMBL document CHEMBL6074641, “Polypharmacological Drug Design Guided by Integrating Phenotypic and Restricted Fragment Docking Strategies” (J Med Chem, 2024).

By IC50 is commonly meant the concentration needed to halve the response being measured.

Chain of Cytochrome P450 3A4 (P08684 whole entry): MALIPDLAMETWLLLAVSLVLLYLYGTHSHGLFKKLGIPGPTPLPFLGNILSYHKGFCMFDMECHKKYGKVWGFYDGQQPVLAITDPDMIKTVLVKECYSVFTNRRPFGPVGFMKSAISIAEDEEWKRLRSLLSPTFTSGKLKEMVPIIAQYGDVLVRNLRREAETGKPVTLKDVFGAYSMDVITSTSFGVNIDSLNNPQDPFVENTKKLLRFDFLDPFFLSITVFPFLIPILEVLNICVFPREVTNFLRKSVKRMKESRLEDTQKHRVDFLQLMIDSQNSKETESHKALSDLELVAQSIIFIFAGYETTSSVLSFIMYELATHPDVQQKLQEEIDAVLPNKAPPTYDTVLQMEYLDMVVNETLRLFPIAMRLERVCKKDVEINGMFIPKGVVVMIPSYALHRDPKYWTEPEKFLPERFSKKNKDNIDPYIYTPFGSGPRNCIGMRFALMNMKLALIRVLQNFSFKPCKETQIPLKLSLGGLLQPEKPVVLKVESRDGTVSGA
Chain of Voltage-gated inwardly rectifying potassium channel KCNH2 (Q12809 whole entry): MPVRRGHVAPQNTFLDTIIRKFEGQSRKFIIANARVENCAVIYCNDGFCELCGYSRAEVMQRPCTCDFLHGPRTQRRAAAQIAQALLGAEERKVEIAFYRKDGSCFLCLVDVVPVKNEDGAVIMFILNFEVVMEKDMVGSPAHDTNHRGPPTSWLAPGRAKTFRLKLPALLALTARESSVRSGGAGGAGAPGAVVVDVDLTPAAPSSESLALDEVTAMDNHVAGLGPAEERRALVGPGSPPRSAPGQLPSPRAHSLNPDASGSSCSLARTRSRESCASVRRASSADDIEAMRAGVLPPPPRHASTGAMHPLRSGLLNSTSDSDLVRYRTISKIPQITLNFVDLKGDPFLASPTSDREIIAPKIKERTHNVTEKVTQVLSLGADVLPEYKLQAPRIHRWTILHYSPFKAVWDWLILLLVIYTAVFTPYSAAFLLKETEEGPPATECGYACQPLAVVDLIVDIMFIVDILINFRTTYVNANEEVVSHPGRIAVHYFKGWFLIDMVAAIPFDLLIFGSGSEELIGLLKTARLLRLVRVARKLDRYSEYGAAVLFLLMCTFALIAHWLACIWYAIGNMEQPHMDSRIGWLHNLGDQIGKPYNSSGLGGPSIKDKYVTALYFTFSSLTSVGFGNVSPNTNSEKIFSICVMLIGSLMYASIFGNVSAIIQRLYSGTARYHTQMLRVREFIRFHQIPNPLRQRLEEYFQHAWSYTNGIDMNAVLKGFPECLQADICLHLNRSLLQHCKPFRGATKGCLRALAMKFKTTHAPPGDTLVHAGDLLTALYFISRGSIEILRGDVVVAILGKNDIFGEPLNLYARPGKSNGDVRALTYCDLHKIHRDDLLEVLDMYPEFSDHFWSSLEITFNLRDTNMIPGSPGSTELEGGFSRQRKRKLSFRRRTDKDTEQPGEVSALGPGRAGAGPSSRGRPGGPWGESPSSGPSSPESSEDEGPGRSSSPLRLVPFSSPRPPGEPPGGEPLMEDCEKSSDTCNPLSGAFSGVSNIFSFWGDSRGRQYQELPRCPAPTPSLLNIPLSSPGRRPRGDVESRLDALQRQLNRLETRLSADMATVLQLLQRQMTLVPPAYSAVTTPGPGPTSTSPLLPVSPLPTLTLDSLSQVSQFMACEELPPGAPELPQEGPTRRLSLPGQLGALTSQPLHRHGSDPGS
Chain of Cytochrome P450 3A5 (P20815 whole entry): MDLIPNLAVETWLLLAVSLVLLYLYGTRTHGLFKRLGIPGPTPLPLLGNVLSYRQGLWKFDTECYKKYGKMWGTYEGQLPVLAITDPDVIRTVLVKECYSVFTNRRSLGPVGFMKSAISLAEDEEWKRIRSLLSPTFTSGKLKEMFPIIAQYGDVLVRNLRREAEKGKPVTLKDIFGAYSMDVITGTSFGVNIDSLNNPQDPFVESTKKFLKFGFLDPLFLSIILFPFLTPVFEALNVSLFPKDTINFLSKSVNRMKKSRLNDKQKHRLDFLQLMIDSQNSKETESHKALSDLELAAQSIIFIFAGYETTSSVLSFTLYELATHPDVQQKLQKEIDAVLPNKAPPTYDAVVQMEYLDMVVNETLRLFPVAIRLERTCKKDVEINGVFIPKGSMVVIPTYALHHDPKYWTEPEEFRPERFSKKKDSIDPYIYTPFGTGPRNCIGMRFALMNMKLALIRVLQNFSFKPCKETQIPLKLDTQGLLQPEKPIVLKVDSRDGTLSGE

As to `Cc1cc(F)cc(Nc2ncc(Nc3ccc(SC(F)(F)F)cc3)cc2C(N)=O)c1`, the result in the series on Microglia [1] and in the series on Microglia [4] was inactive. In addition, the IC50 in series [2] was greater than 20 µM; on Cytochrome P450 3A4 it was greater than 10 µM; on Cytochrome P450 3A5 it was greater than 10 µM. In addition, the Fu in series [3] is 0.1%. Further, the result in the series with Mus musculus was Active.
